In patent US20240032533A1 (priority 2020, published 2024):
Like-named read-outs stand apart in the source and are kept apart here.

Experiments:
[1] = Water solubility as a function of pH; assay type: physicochemical; details: increases at pH values below 7.0 and above 7.0
Zymoseptoria tritici = assay: microbe, parasite or virus in culture; assay type: cell-based; details: for inhibition at 0.05 ppm / inhibition at 0.5 ppm / inhibition at 1 ppm / inhibition at 0.1 ppm: Zymoseptoria tritici
[2] = tested on: Phytophthora infestans strain Pi96; assay type: in vivo; details: for Disease Severity Index (%) 3 dpi / Disease Severity Index (%) 7 dpi / Disease Severity Index (%) 5 dpi / Disease Severity Index (%) 10 dpi: preventive 24 h
Venturia inaequalis = assay: microbe, parasite or virus in culture; assay type: cell-based
Phytophthora infestans = assay: microbe, parasite or virus in culture; assay type: cell-based; details: for inhibition at 0.05 ppm: read-out: Activity (%) 0.05 ppm; for inhibition at 0.1 ppm: read-out: Activity (%) 0.1 ppm; for inhibition at 0.5 ppm: read-out: Activity (%) 0.5 ppm; for inhibition at 1 ppm: read-out: Activity (%) 1 ppm; for inhibition at 5 ppm: read-out: Activity (%) 5 ppm; for inhibition at 10 ppm: read-out: Activity (%) 10 ppm; for inhibition at 50 ppm: read-out: Activity (%) 50 ppm
[3] = tested on: Plasmopara viticola strain PvS; assay: Grapevine downy mildew, preventive treatment of detached grapevine leaves / leaf discs; assay type: in vivo; details: 2267 ppm, preventive 24 h, 7 dpi

Row | SMILES | Activity (%) 0.1 ppm (Zymoseptoria tritici) [%] | inhibition at 0.05 ppm (Zymoseptoria tritici; 0.05 ppm) [%] | inhibition at 0.5 ppm (Zymoseptoria tritici; 0.5 ppm) [%] | inhibition at 1 ppm (Zymoseptoria tritici; 1 ppm) [%] | inhibition at 0.1 ppm (Venturia inaequalis) [%] | inhibition at 0.5 ppm (Venturia inaequalis) [%] | inhibition at 1 ppm (Venturia inaequalis) [%] | inhibition at 0.05 ppm (Phytophthora infestans) [%] | inhibition at 0.1 ppm (Phytophthora infestans) [%] | inhibition at 0.5 ppm (Phytophthora infestans) [%] | inhibition at 1 ppm (Phytophthora infestans) [%] | inhibition at 5 ppm (Phytophthora infestans) [%] | inhibition at 10 ppm (Phytophthora infestans) [%] | inhibition at 50 ppm (Phytophthora infestans) [%] | inhibition at 0.1 ppm (Zymoseptoria tritici) [%] | further results
1 | CCCCCCCCCCCCCCCCCC[S+](C)C.[Cl-] [octadecyl dimethyl sulfonium chloride] | – | – | – | – | – | – | – | – | – | – | – | – | – | – | – | water solubility, pH dependency [1]: minimum around pH 7.0
2 | CCCCCCCCCCCCCCCCCC[S+](C)C.[Cl-] [ODS-Cl, octadecyl dimethyl sulfonium chloride] | 8.8 | 6.5 | 11.5 | 91 | 14.3 | 97.4 | 97.2 | 6.2 | 12.6 | 12.5 | 12.3 | 14.1 | 29.3 | 98.4 | – | Disease Severity Index (%) 3 dpi ([2]; 50 ppm): 8.7%; Disease Severity Index (%) 7 dpi ([2]; 50 ppm): 40.0%; Disease Severity Index (%) 3 dpi ([2]; 100 ppm): 5.5%; Disease Severity Index (%) 3 dpi ([2]; 500 ppm): 0.0%; Disease Severity Index (%) 5 dpi ([2]; 500 ppm): 0.0%; Disease Severity Index (%) 7 dpi ([2]; 500 ppm): 0.0%; Disease Severity Index (%) 10 dpi ([2]; 500 ppm): 0.0%; control of the disease (late blight) ([2]; 1000 ppm): full control; Disease Severity Index (%) 3 dpi ([2]; 1000 ppm): 0.0%; Disease Severity Index (%) 5 dpi ([2]; 1000 ppm): 0.0%; Disease Severity Index (%) 7 dpi ([2]; 1000 ppm): 0.0%; Disease Severity Index (%) 10 dpi ([2]; 1000 ppm): 0.0%
3 | N#Cc1c(Cl)c(Cl)c(Cl)c(C#N)c1Cl [Chlorothalonil] | – | 4.3 | 17.9 | 54.7 | 34.3 | 88.8 | 97.4 | -11.8 | -5.8 | -2 | 15.3 | 99.2 | 98.5 | 100 | 10 | –
4 | CCCCCCCCCCCCNC(=N)N [Dodine] | – | 5.2 | 101 | 98.1 | 83.2 | 98.2 | 97.3 | 12.5 | 12 | 59.4 | 81.9 | 93.8 | 95.5 | 98.9 | 21.4 | control towards Downy Mildew [3]: full control
5 | CCCCCCCCCCCCCCCCCC[S+](C)C.[I-] [1-5, octadecyl dimethyl sulfonium iodide] | 2.7 | – | – | – | – | – | – | – | – | – | – | – | – | – | – | Activity (%) 0.05 ppm (Zymoseptoria tritici; 0.05 ppm): 6.4%; Activity (%) 0.5 ppm (Zymoseptoria tritici; 0.5 ppm): 11.2%; Activity (%) 1 ppm (Zymoseptoria tritici; 1 ppm): 92.7%
